Counter-ions that a name gives are not always drawn. Like-named read-outs stand apart in the source and are kept apart here. Marks after values point to notes of the source that are not given here.
Experiments:
[1] = system: mice induced by pentobarbital sodium; assay: Hypnosis test of pentobarbital sodium in dosage below threshold; assay type: in vivo, Kunming mice; conditions: for Incidence of sleep / Number of animals falling asleep: 25 mg/kg gavage, pentobarbital sodium 30 mg/kg i.p., within 25 min; for Number of animals falling asleep: 10 animals per group; for Number of animals falling asleep and incidence of sleep compared with control group, in words: pentobarbital sodium in dosage below threshold
Method: (§1) Source of animals: Kunming mice, 18˜22 g, male, were clean grade animals provided by Guangdong Medical Lab Animal Center. In the breeding room of the experimental animals, the temperature was 22±2° C., the relative humidity was 55˜70%, and the animal feed was provided by Guangdong Medical Lab Animal Center.
(§2) 3 groups of Compound 7, Compound 8, DL-3-(3′-hydroxy)-butylphthalide (DL for short) were set in the experiment, 25 mg/kg respectively. And distilled water control group was additionally set.
(§3) Sample processing: 25 mg respective sample was taken, and added with distilled water to 20 ml, to form a uniform suspension, for use in the test.
(§4) Route for administration: gavage
40 male mice with a body weight of 18˜22 g were selected, and randomly divided into 4 groups, 10 mice in each group. They were consecutively administered with samples for 28 days, and 15 min after the administration of the samples by gavage on the 30th day, each group of animals were i.p. injected with 30 mg/kg.b.w pentobarbital sodium, and the injection amount was 0.2 ml/20 g.b.w. The criterion for judging falling asleep was that the righting reflex in a mouse disappeared for 1 min or more. The time for the occurrence of sleep of each group of animals within 25 min were observed after administration of pentobarbital sodium.

rats with local ischemia [2] = assay: Volume of cerebral infarction in tMCAO rats, gavage administration; assay type: in vivo, Wistar rats; conditions: for Volume of cerebral infarction (25 mg/kg group): 25 mg/kg oral (gavage) 10 min after ischemia; for Volume of cerebral infarction (25 mg/kg group) / Volume of cerebral infarction (50 mg/kg group) / Volume of cerebral infarction (100 mg/kg group): 2 hr ischemia, 24 hr reperfusion; for Volume of cerebral infarction (50 mg/kg group): 50 mg/kg oral (gavage) 10 min after ischemia; for Volume of cerebral infarction (100 mg/kg group): 100 mg/kg oral (gavage) 10 min after ischemia; for Effect on the volume of cerebral infarction, in words: oral administration, compared with solvent control group
Method: (§5) Wistar rats, body weight 250˜280 g, were raised separately before and after the surgical operation, and kept at room temperature of 23˜25° C. All the rats were allowed ad libitum access to food and water. tMCAO models were prepared according to the method of longa, et al. Rats were anaesthetized with 10% chloral hydrate (350 mg/kg, i.p.), and the body temperature was maintained at 37±0.5° C. The rat was fixed in supine position onto an operating table. The skin was cut along the midline of the neck, and the common carotid artery (CCA), external carotid artery (ECA) and internal carotid artery (ICA) on the right side were carefully isolated. The ECA was ligated and cut, and straightened in line with the ICA. A small incision was cut on the ECA, and a 4.0 cm long round-head silicified nylon thread with a diameter of 0.26 mm (coated with 0.1% polylysine) was inserted through this incision into the ICA for about 1.85˜2.00 cm, until the starting place of the anterior cerebral artery of the rat, to block the blood supply of the middle cerebral artery. After 2 hr of ischemia, the nylon thread was pulled out carefully, the ECA incision was ligated, and the operational incision was sutured. The animal was returned to the cage for 24 hr reperfusion.
Rats were randomly divided into 12 groups: model control group, water for injection (100 mg/kg), the administration group of the Compound 7 in Example 1 (25, 50, 100 mg/kg), the administration group of the Compound 8 in Example 1 (25, 50, 100 mg/kg), the administration group of DL-3-(3′-hydroxy)-butylphthalide (DL for short) (25, 50, 100 mg/kg). They were orally administered 10 min after the ischemia caused by MCA blockage.
(§6) After reperfusion injury in the rat for 24 hr, the rat was beheaded and the brain was taken out immediately. The olfactory tract, the cerebellum and the low brain stem were removed. The brain was coronally cut into 6 slices (the first slice to the fifth slice was 2 mm/slice, and the sixth slice was 4 mm), and they were rapidly placed into 5 ml solution containing 1.5 ml 4% TTC and 0.1 ml 1 M K2HPO4 to stain (37° C., shielded from light) for 20˜30 min, wherein they are flipped once every 5 min. After the TTC staining, the normal tissue was dark stained and appeared red, and the infarcted tissue appeared white. Each group of brain slices were neatly arranged and were taken photos for preservation. The infarction area in each slice was calculated, and the infarction volume was finally converted by superposition. The infarction volume was expressed in percentage in a cerebral hemisphere, to eliminate the effects of cerebral edema. Brain infarction volume(%)=(volume of the contralateral hemisphere to the operated side−volume of uninfarcted portion of the operated hemisphere)/volume of the contralateral hemisphere to the operated side*100% (4) Experimental Results

[3] = system: mice induced by pentobarbital sodium; assay: Hypnosis test of pentobarbital sodium in dosage above threshold; assay type: in vivo, Kunming mice; conditions: for Time for falling asleep / Sleeping time: 25 mg/kg gavage for 30 days, pentobarbital sodium 50 mg/kg i.p.; for Sleeping time: within 60 min; for Effect of improving sleep, in words: oral administration to mice for 30 days, summary of both hypnosis tests
Method: as §1, §2, §3, §4
40 male mice with a body weight of 18˜22 g were selected, and randomly divided into 4 groups, 10 mice in each group. They were consecutively administered with samples for 30 days, and 15 min after the administration of the samples by gavage on the 30th day, each group of animals were i.p. injected with 50 mg/kg.b.w pentobarbital sodium, and the injection amount was 0.2 ml/20 g.b.w. The criterion for judging falling asleep was that the righting reflex in a mouse disappeared for 1 min or more. The time for falling asleep and the sleeping time of each group of animals within 60 min were observed after administration of pentobarbital sodium.

Solubility in water = assay type: physicochemical
rats with local ischemia [4] = assay type: in vivo
Method: as §5, §6
Rats of the ischemia blocking model in Example 11 were taken, and randomly divided into 12 groups: sham operation group, model control group, (water for injection, 10 mg/kg), 1a group (2.5 mg/kg, 5.0 mg/kg, 10 mg/kg), 1b group (2.5 mg/kg, 5.0 mg/kg, 10 mg/kg), and 1c group (2.5 mg/kg, 5.0 mg/kg, 10 mg/kg). 10 min after ischemia caused by MCA blockage, they were administered intravenously.
The determination of the volume of cerebral infarction was the same to Example 4.

[5] = 2.5 mg/kg intravenous 10 min after ischemia, 2 hr ischemia, 24 hr reperfusion
[6] = 5.0 mg/kg intravenous 10 min after ischemia, 2 hr ischemia, 24 hr reperfusion
[7] = 10.0 mg/kg intravenous 10 min after ischemia, 2 hr ischemia, 24 hr reperfusion

Row | Structure (SMILES) | Incidence of sleep [1] | Number of animals falling asleep [1] | Number of animals falling asleep and incidence of sleep compared with control group, in words [1] | Volume of cerebral infarction (25 mg/kg group) (rats with local ischemia [2]) [%] | Volume of cerebral infarction (50 mg/kg group) (rats with local ischemia [2]) [%] | Volume of cerebral infarction (100 mg/kg group) (rats with local ischemia [2]) [%] | Effect on the volume of cerebral infarction, in words (rats with local ischemia [2]) | Time for falling asleep [3] [min] | Sleeping time [3] [min] | Effect of improving sleep, in words [3] | Volume of cerebral infarction (2.5 mg/kg group) (rats with local ischemia [4]; [5]) [%] | Volume of cerebral infarction (5.0 mg/kg group) (rats with local ischemia [4]; [6]) [%] | Volume of cerebral infarction (10.0 mg/kg group) (rats with local ischemia [4]; [7]) [%] | further results
1 | CC(O)CCC1OC(=O)c2ccccc21 (racemic) [DL, DL-3-(3′-hydroxy)-butylphthalide, reference compound] | 50% | 5 | have significant difference | 17.2 | 16.4 | 14.5 | can significantly reduce the volume of cerebral infarction | 4.68 ± 1.35 | 45.48 ± 11.23 | have effects of improving sleep | – | – | – | –
2 | CC(O)CC[C@H]1OC(=O)c2ccccc21 (single isomer, unassigned; (+)) [Compound 7] | 30% | 3 | – | 19.8 | 18.9 | – | did not effectively reduce the volume of cerebral infarction | 5.78 ± 1.88 | 41.16 ± 7.80 | does not have the effect of improving sleep | – | – | – | Effect on the volume of cerebral infarction, in words (rats with local ischemia [2]; listed as R-configuration): cannot affect the cerebral infarct volume; Effect on the volume of cerebral infarction, in words (rats with local ischemia [2]; listed as compound in R-configuration): does not have the effect of reducing the cerebral infarct volume
3 | CC(O)CC[C@@H]1OC(=O)c2ccccc21 (single isomer, unassigned; (-)) [Compound 8] | 80* % | 8* | have significant difference | 14.6 | 13.8 | 11.8 | can significantly reduce the volume of cerebral infarction | 3.91 ± 0.99 | 53.28 ± 11.12 | have effects of improving sleep | – | – | – | Effect on the volume of cerebral infarction, in words (rats with local ischemia [2]; listed as S-configuration): decreasing the cerebral infarct volume; Effect of improving sleep, in words ([3]; listed as S-configuration): can improve the sleeping state in animals; Effect of improving sleep, in words ([3]; listed as S-configuration of the Metabolite I): has the effect of improving sleep; Time for falling asleep and sleeping time compared with control group, in words ([3]; pentobarbital sodium in dosage above threshold): have significant difference; Solubility in water, in words (Solubility in water): insoluble in water
4 | CC(CC[C@@H]1OC(=O)c2ccccc21)OC(=O)CCC(=O)[O-].[Na+] (stereo partly drawn) [Compound 1a, sodium salt of (S)-3-(3′-succinate ester)butylphthalide] | – | – | – | – | – | – | – | – | – | – | 21 | 15.4 | 11.8 | –
5 | CC(CC[C@@H]1OC(=O)c2ccccc21)OC(=O)CN (stereo partly drawn) [Compound 1b, (S)-3-(3′-glycinate ester)butylphthalide hydrochloride] | – | – | – | – | – | – | – | – | – | – | – | – | – | Volume of cerebral infarction (2.5 mg/kg group) (rats with local ischemia [4]; rat, in vivo): 21.3%; Volume of cerebral infarction (5.0 mg/kg group) (rats with local ischemia [4]; rat, in vivo): 16.0%; Volume of cerebral infarction (10.0 mg/kg group) (rats with local ischemia [4]; rat, in vivo): 12.0%
6 | CC(CC[C@@H]1OC(=O)c2ccccc21)OP(=O)([O-])[O-].[Na+].[Na+] (stereo partly drawn) [Compound 1c, (S)-3-(3′-phosphate ester)butylphthalide disodium salt] | – | – | – | – | – | – | – | – | – | – | 20.6 | 15.8 | 11.7 | –

Source: US9278087B2, “Derivative of butylphthalide and preparation method and use thereof” (Shijiazhuang Yiling Pharmaceutical Co., Ltd, priority 2011, dated 2016)
